Results taken from paper PMC9093036, “Discovery of METTL3 Small Molecule Inhibitors by Virtual Screening of Natural Products” (Frontiers in Pharmacology, 2022).

Target: T1, METTL3 (Homo sapiens, UniProt Q86U44)
T1 construct: METTL3-METTL14 complex (wild type); with METTL14
Experiment: in vitro methyltransferase assay with omission of components, m6A by LC-MS/MS
Type: biochemical
Text: in vitro methyltransferase assay with omission of components, m6A by LC-MS/MS on METTL3 | METTL[…]TL14 (wild type), SAM, and RNA are essential for m^6A formation

T1 sequence (Q86U44 2-580): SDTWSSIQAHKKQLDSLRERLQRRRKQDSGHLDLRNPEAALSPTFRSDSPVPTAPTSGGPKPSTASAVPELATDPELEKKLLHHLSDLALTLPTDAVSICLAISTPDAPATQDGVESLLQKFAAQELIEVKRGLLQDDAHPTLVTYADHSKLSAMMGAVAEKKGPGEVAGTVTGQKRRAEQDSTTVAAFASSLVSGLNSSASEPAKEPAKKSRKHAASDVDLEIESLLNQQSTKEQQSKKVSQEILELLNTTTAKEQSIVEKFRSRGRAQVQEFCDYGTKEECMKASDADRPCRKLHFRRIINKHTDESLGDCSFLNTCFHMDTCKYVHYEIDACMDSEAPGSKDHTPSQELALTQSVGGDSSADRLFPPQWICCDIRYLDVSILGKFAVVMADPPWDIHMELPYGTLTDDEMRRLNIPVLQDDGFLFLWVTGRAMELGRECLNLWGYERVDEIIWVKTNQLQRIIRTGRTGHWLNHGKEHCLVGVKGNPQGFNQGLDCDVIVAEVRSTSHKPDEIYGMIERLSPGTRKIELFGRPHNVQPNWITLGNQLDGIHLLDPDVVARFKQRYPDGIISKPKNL
T1 sequence (Q9HCE5 whole entry partner): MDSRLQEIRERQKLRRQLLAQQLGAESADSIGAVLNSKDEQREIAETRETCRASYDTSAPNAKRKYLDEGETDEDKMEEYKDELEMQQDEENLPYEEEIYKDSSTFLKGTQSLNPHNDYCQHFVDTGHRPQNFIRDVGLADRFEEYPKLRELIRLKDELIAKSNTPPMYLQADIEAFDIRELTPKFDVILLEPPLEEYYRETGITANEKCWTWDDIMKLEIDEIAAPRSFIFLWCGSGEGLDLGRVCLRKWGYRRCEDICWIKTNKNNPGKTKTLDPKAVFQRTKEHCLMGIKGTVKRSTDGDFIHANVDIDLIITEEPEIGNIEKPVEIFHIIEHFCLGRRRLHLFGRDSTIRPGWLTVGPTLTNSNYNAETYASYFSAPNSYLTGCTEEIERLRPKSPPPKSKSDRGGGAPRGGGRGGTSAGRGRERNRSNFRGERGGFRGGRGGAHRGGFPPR

C[S+](CC[C@H](N)C(=O)[O-])C[C@H]1O[C@@H](n2cnc3c(N)ncnc32)[C@H](O)[C@@H]1O (stereo partly shown) [SAM]
components essential for m6A formation: METTL3-METTL14 (wild type), SAM, and RNA are essential for m^6A formation
